“Also recorded” adds a separate entry of the source. Read-outs that look alike come from different tables or passages of the source.
How the values were obtained:
[1] = literature values, cited from earlier work
[2] = BIAcore biosensor kinetic parameters of biotin binding in streptavidin muteins; conditions: for ka or kon / kd or koff / Kd: BIAcore, biotinylated IgG on chip, mutein injected; for Kd: read-out: Kd (biotin binding affinity); for t1/2, half-life of biotin in the SAV-biotin complex: estimated as 0.693/koff/60
Method: The kinetic parameters for these muteins were determined using the BIAcore biosensor. Biotinylated IgG proteins were immobilized to the sensor chip and purified streptavidin muteins were injected to determine the binding properties:
(§1) Other methods. BIAcore biosensor for determining the kinetic parameters, preparation of streptavidin-agarose matrix and purification of biotinylated proteins were performed as previously described (Wu and Wong, 2005a; Wu and Wong, 2005b).

[3] = Ligand energy inspector, Molegro molecular viewer (MolDock score), biotin binding pocket of subunit A
Method: Replacement of residues in loop7-8 of the wild-type streptavidin results in allowing loop7-8 to become flexible and changing the relative orientation of subunits in the tetrameric structure. These structural changes lead to lowering of the biotin binding affinity in the 8-aa-loop-H127C mutein. The strength of biotin interaction with streptavidin was analyzed using the ligand energy inspector function in the Molegro molecular viewer program (Thomsen and Christensen, 2006). The more the negative value indicates the stronger interaction. […] In reference to the wild-type streptavidin, a few residues in the 8-aa-loop-H127C mutein have a little bit stronger interactions with biotin (data not shown). However, the net outcome is that the 8-aa-loop-H127C mutein has a weaker biotin binding affinity.

[4] = Binding to biotin-agarose, elution with 4 mM biotin, rebinding after dialysis
Method: In order to characterize these muteins, it is essential to purify each of these muteins for further analyses. […] After dialysis to remove any biotin from the pooled elution fraction, the purified muteins could rebind to the biotin-agarose matrix and could be eluted off again by 4 mM biotin in the buffer. This indicates the reversible biotin binding capability in these muteins.
Production and affinity purification of streptavidin muteins. Bacillus subtilis cells carrying the expression vectors were cultivated in super-rich medium (Wu et al., 2002) at 30° C. for 9-12 hours. Culture supernatant was collected by centrifugation and streptavidin muteins were affinity purified using biotin-agarose as described previously (Wu and Wong, 2005a).
Bound biotin in the 8-aa-loop-H127C mutein can be removed by dialysis. Purified 8-aa-loop-H127C muteins eluted from the biotin agarose by 4 mM biotin will contain bound biotin. If biotin binding is reversible, bound biotin should be removable by dialysis. Indeed, the dialyzed 8-aa-loop-H127C muteins could rebind to the biotin-agarose column and could be eluted off from the column by 4 mM biotin in the elution buffer (FIG. 5). […] Some 8-aa-loop-H127C mutein molecules could be observed in the flow-through fraction. This is probably because of overloading the column with excess muteins.

[5] = test system: biotinylated protein G and biotinylated IgG; test: Mutein-agarose affinity matrix: purification of biotinylated proteins, matrix stability and reuse; conditions: comparison of FIGS. 7 and 10
Method: as §1
Stable subunit interactions in the 8-aa-loop-H127 mutein. The purified 8-aa-loop-H127C mutein can be immobilized to the agarose matrix with an estimated concentration of 3.8 mg/ml of settled agarose beads. […] Since it is likely that only one subunit in an tetrameric 8-aa-loop-H127C mutein was chemically coupled to the matrix (the other three subunits associated with the immobilized subunit via non-covalent interactions), this observation illustrates that the subunit interactions between the subunits in the tetrameric 8-aa-loop-H127C mutein were stable enough and the non-covalently associated subunits were not washed off from the column under the conditions used for the binding, washing and elution processes.
Application of the 8-aa-loop-H127C mutein-agarose matrices for purification of biotinylated protein G and biotinylated IgG. […] The bound biotinylated proteins could be eluted off from the column using 4 mM biotin (FIGS. 7 and 8).

[6] = known value, cited from earlier work

W120A mutein: streptavidin mutein with Trp-120 changed to alanine [reference compound]
Kd ([1]; read-out: dissociation constant (Kd) for biotin): 3 nM

ΔWHC: streptavidin mutein with Trp-120 deleted (loop T T E A N A K) and H127C mutation (SEQ ID NO: 13) (TTEANAK; listed as Bacillus subtilis)
ka or kon [2]: 49600 M⁻¹ s⁻¹ | kd or koff [2]: 0.0004 s⁻¹ | Kd ([2]; listed as ΔW-HC): 8.1 nM | Kd [2]: ~1 nM | t1/2, half-life of biotin in the SAV-biotin complex [2]: 28.9 min

8-aa-loop-H127C mutein: tetrameric streptavidin mutein, loop7-8 replaced by D S S N G S D G, with H127C mutation (SEQ ID NO: 14) (DSSNGSDG; listed as Bacillus subtilis)
ka or kon [2]: 22100 M⁻¹ s⁻¹ | kd or koff [2]: 0.000428 s⁻¹ | Kd [2]: 19 nM | t1/2, half-life of biotin in the SAV-biotin complex [2]: 27 min | Difference (wild-type − mutein), Asn 23 ([3]; residue contribution): −1.1 | Difference (wild-type − mutein), Asp128 ([3]; residue contribution): −3.3 | Difference (wild-type − mutein), Leu 25 ([3]; residue contribution): −0.8 | Difference (wild-type − mutein), Lys 121 (from subunit D) ([3]; residue contribution): −1.3 | Difference (wild-type − mutein), Ser 45 ([3]; residue contribution): −1.4 | Difference (wild-type − mutein), Trp 120 (from subunit D) ([3]; residue contribution): −10.5 | Difference (wild-type − mutein), MolDock score ([3]; total): −14.4 | reversible biotin binding [4]: can bind to biotin-agarose and can be eluted off from the matrix by 4 mM biotin; also recorded: biotin binds to this protein in a reversible manner | binding capacity of the matrix for biotinylated protein G [5]: much better binding capacity than the matrix with the Roche streptavidin mutein

Wild-type streptavidin: 52,800 dalton tetrameric protein from Streptomyces avidinii, SEQ ID NO:1
dissociation constant (Kd) for biotin [1]: 10^−13 to 10^−14 M | isoelectric point (pI) [6]: ~5 | isoelectric point (pI) ([6]; listed as natural streptavidin): 5-6

6-aa-loop mutein: streptavidin mutein with engineered loop7-8 D S N G S G (SEQ ID NO: 16) (DSNGSG; listed as Bacillus subtilis)
ka or kon [2]: 24300 M⁻¹ s⁻¹ | kd or koff [2]: 7.59e-05 s⁻¹ | t1/2, half-life of biotin in the SAV-biotin complex [2]: 152 min

Reference: US8822640B2, “Tetrameric streptavidin mutein with reversible biotin binding capability” (UTI Limited Partnership, priority 2011, dated 2014)
